# Results reported in PMC3429062, “A Novel Member of the Trehalose Transporter Family Functions as an H^+-Dependent Trehalose Transporter in the Reabsorption of Trehalose in Malpighian Tubules” (Frontiers in Physiology, 2012).
# Target: T1, PvTRET1 (Polypedilum vanderplanki, UniProt A5LGM7)
# T1 construct: gene Tret1; expressed from injected cRNA in Xenopus oocytes; construct described previously
# T1 sequence (A5LGM7 1-504): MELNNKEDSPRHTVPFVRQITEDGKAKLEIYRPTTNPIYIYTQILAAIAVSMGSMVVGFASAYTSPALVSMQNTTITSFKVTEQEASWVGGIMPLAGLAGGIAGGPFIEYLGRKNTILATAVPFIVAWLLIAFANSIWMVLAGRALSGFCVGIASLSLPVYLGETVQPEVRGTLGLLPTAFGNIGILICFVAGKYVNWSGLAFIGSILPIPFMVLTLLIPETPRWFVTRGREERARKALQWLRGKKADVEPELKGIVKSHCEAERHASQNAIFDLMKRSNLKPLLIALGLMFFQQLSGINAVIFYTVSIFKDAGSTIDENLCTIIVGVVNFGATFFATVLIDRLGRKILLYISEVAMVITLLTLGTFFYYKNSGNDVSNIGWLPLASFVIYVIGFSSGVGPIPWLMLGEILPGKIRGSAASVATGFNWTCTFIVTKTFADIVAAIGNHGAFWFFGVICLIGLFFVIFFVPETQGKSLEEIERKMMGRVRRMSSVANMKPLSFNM
# Test: uptake into cRNA-injected Xenopus oocytes, HPLC
# Format: cell-based
# Conditions: 105 mM trehalose, various pH; transport
smiles,measurement,value
OC[C@H]1O[C@H](O[C@H]2O[C@H](CO)[C@@H](O)[C@H](O)[C@H]2O)[C@H](O)[C@@H](O)[C@@H]1O [trehalose],trehalose uptake,Trehalose uptake into Xenopus oocytes via PvTRET1 at various pH values
